Test results published in PubChem BioAssay (NCI).
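48-hour exposure; five concentrations; linearly interpolated endpoints. GI50 marks 50% less growth. The concentration for full growth arrest is given as TGI.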

How the values were obtained:
Test in all cases: growth of human tumour cells (NCI), 48 h
NCI-H226 lung = test system: NCI-H226 lung
HS 578T breast = test system: HS 578T breast
OVCAR-8 ovarian = test system: OVCAR-8 ovarian
SNB-75 CNS = test system: SNB-75 CNS
OVCAR-5 ovarian = test system: OVCAR-5 ovarian
MCF7 breast = test system: MCF7 breast
RPMI-8226 leukemia = test system: RPMI-8226 leukemia
A498 renal = test system: A498 renal
MOLT-4 leukemia = test system: MOLT-4 leukemia
HT29 colon = test system: HT29 colon
NCI-H460 lung = test system: NCI-H460 lung
SW-620 colon = test system: SW-620 colon
HOP-92 NSCLC = test system: HOP-92 NSCLC
U251 CNS = test system: U251 CNS
TK-10 renal = test system: TK-10 renal
786-0 renal = test system: 786-0 renal
A549 NSCLC = test system: A549 NSCLC
UACC-62 melanoma = test system: UACC-62 melanoma
LOX IMVI melanoma = test system: LOX IMVI melanoma
NCI-H23 lung = test system: NCI-H23 lung
HL-60(TB) leukemia = test system: HL-60(TB) leukemia
ACHN renal = test system: ACHN renal
HCT-15 colon = test system: HCT-15 colon
MDA-MB-435 = test system: MDA-MB-435
OVCAR-3 ovarian = test system: OVCAR-3 ovarian
SN12C renal = test system: SN12C renal
DU-145 prostate = test system: DU-145 prostate
KM12 colon = test system: KM12 colon
SK-MEL-2 melanoma = test system: SK-MEL-2 melanoma
SK-MEL-5 melanoma = test system: SK-MEL-5 melanoma
UACC-257 melanoma = test system: UACC-257 melanoma
CAKI-1 renal = test system: CAKI-1 renal
SF-268 CNS = test system: SF-268 CNS
CCRF-CEM leukemia = test system: CCRF-CEM leukemia
NCI/ADR-RES ovarian = test system: NCI/ADR-RES ovarian
HCT-116 colon = test system: HCT-116 colon
HCC-2998 colon = test system: HCC-2998 colon
SR leukemia = test system: SR leukemia
MDA-MB-231 breast = test system: MDA-MB-231 breast
EKVX NSCLC = test system: EKVX NSCLC
OVCAR-4 ovarian = test system: OVCAR-4 ovarian
RXF 393 renal = test system: RXF 393 renal
SK-MEL-28 melanoma = test system: SK-MEL-28 melanoma
MALME-3M melanoma = test system: MALME-3M melanoma
COLO 205 colon = test system: COLO 205 colon
SF-295 CNS = test system: SF-295 CNS
PC-3 prostate = test system: PC-3 prostate
K-562 leukemia = test system: K-562 leukemia
T-47D breast = test system: T-47D breast
HOP-62 NSCLC = test system: HOP-62 NSCLC
UO-31 renal = test system: UO-31 renal
M14 melanoma = test system: M14 melanoma
SF-539 CNS = test system: SF-539 CNS
NCI-H522 lung = test system: NCI-H522 lung
SNB-19 CNS = test system: SNB-19 CNS
IGROV1 ovarian = test system: IGROV1 ovarian

O=[N+]([O-])c1ccc(Oc2cccc(C(F)(F)F)c2)c([N+](=O)[O-])c1
GI50 (NCI-H226 lung): 2.11 µM
TGI (NCI-H226 lung): 5.92 µM
GI50 (HS 578T breast): 3.99 µM
TGI (HS 578T breast): 32 µM
GI50 (OVCAR-8 ovarian): 2.48 µM
TGI (OVCAR-8 ovarian): 8.16 µM
GI50 (SNB-75 CNS): 5.11 µM
TGI (SNB-75 CNS): 37.9 µM
GI50 (OVCAR-5 ovarian): 4.08 µM
TGI (OVCAR-5 ovarian): 17.6 µM
GI50 (MCF7 breast): 2.81 µM
TGI (MCF7 breast): 8.33 µM
GI50 (RPMI-8226 leukemia): 2.6 µM
TGI (RPMI-8226 leukemia): 7.62 µM
GI50 (A498 renal): 12.7 µM
TGI (A498 renal): 25.3 µM
GI50 (MOLT-4 leukemia): 0.344 µM
TGI (MOLT-4 leukemia): 2.92 µM
GI50 (HT29 colon): 4.68 µM
TGI (HT29 colon): 16.2 µM
GI50 (NCI-H460 lung): 3.1 µM
TGI (NCI-H460 lung): 10.2 µM
GI50 (SW-620 colon): 0.451 µM
TGI (SW-620 colon): 10.1 µM
GI50 (HOP-92 NSCLC): 1.25 µM
TGI (HOP-92 NSCLC): 5.39 µM
GI50 (U251 CNS): 3.61 µM
TGI (U251 CNS): 14.2 µM
GI50 (TK-10 renal): 3.54 µM
TGI (TK-10 renal): 9.33 µM
GI50 (786-0 renal): 3.24 µM
TGI (786-0 renal): 9.81 µM
GI50 (A549 NSCLC): 4.56 µM
TGI (A549 NSCLC): 16.5 µM
GI50 (UACC-62 melanoma): 3.78 µM
TGI (UACC-62 melanoma): 15.2 µM
GI50 (LOX IMVI melanoma): 0.447 µM
TGI (LOX IMVI melanoma): 10.8 µM
GI50 (NCI-H23 lung): 2.15 µM
TGI (NCI-H23 lung): 12 µM
GI50 (HL-60(TB) leukemia): 1.7 µM
TGI (HL-60(TB) leukemia): 4.65 µM
GI50 (ACHN renal): 3.39 µM
TGI (ACHN renal): 13.8 µM
GI50 (HCT-15 colon): 2.41 µM
TGI (HCT-15 colon): 10.3 µM
GI50 (MDA-MB-435): 1.67 µM
TGI (MDA-MB-435): 3.93 µM
GI50 (OVCAR-3 ovarian): 3.19 µM
TGI (OVCAR-3 ovarian): 9.21 µM
GI50 (SN12C renal): 3.63 µM
TGI (SN12C renal): 13.4 µM
GI50 (DU-145 prostate): 2.33 µM
TGI (DU-145 prostate): 5.38 µM
GI50 (KM12 colon): 2.52 µM
TGI (KM12 colon): 6.73 µM
GI50 (SK-MEL-2 melanoma): 3.81 µM
TGI (SK-MEL-2 melanoma): 9.82 µM
GI50 (SK-MEL-5 melanoma): 2.53 µM
TGI (SK-MEL-5 melanoma): 7.72 µM
GI50 (UACC-257 melanoma): 5.46 µM
TGI (UACC-257 melanoma): 18.7 µM
GI50 (CAKI-1 renal): 3.08 µM
TGI (CAKI-1 renal): 21.5 µM
GI50 (SF-268 CNS): 3.17 µM
TGI (SF-268 CNS): 12.2 µM
GI50 (CCRF-CEM leukemia): 0.296 µM
TGI (CCRF-CEM leukemia): 3.18 µM
GI50 (NCI/ADR-RES ovarian): 3.04 µM
TGI (NCI/ADR-RES ovarian): 12.1 µM
GI50 (HCT-116 colon): 1.24 µM
TGI (HCT-116 colon): 12.7 µM
GI50 (HCC-2998 colon): 2.3 µM
TGI (HCC-2998 colon): 6.51 µM
GI50 (SR leukemia): 0.286 µM
TGI (SR leukemia): 1.82 µM
GI50 (MDA-MB-231 breast): 3.17 µM
TGI (MDA-MB-231 breast): 10.2 µM
GI50 (EKVX NSCLC): 7.11 µM
TGI (EKVX NSCLC): 22.5 µM
GI50 (OVCAR-4 ovarian): 3 µM
TGI (OVCAR-4 ovarian): 19.9 µM
GI50 (RXF 393 renal): 2.61 µM
TGI (RXF 393 renal): 7.87 µM
GI50 (SK-MEL-28 melanoma): 6.47 µM
TGI (SK-MEL-28 melanoma): 19.9 µM
GI50 (MALME-3M melanoma): 5.66 µM
TGI (MALME-3M melanoma): 23.9 µM
GI50 (COLO 205 colon): 2.64 µM
TGI (COLO 205 colon): 6.04 µM
GI50 (SF-295 CNS): 2.87 µM
TGI (SF-295 CNS): 11.3 µM
GI50 (PC-3 prostate): 4.2 µM
TGI (PC-3 prostate): 16.4 µM
GI50 (K-562 leukemia): 0.303 µM
TGI (K-562 leukemia): 9.59 µM
GI50 (T-47D breast): 2.55 µM
TGI (T-47D breast): 7.66 µM
GI50 (HOP-62 NSCLC): 4.01 µM
TGI (HOP-62 NSCLC): 16.1 µM
GI50 (UO-31 renal): 3.15 µM
TGI (UO-31 renal): 13.8 µM
GI50 (M14 melanoma): 2.79 µM
TGI (M14 melanoma): 14 µM
GI50 (SF-539 CNS): 3.05 µM
TGI (SF-539 CNS): 11.5 µM
GI50 (NCI-H522 lung): 2.11 µM
TGI (NCI-H522 lung): 5.7 µM
GI50 (SNB-19 CNS): 5.25 µM
TGI (SNB-19 CNS): 18.3 µM
GI50 (IGROV1 ovarian): 3.02 µM
TGI (IGROV1 ovarian): 14.2 µM
